The numbers were not newly measured in publication PMC5845353, “The selective cathepsin K inhibitor MIV-711 attenuates joint pathology in experimental animal models of osteoarthritis” (Journal of Translational Medicine, 2018), which cites them from elsewhere.

Each structure is given as a SMILES string.

For the series, the system named is HP-1. Set-up: method as in PMID 22484689. To be noted: ACLT rabbits; cited from earlier work.

As to `CN1CCN(c2nc(-c3ccc(C(=O)NC4(C(=O)NCC#N)CCCCC4)cc3)cs2)CC1` [L-006235], the “reduction of HP-1 at dose sufficient for protection of bone loss” value is 60%.
